# Measurements taken from patent US20100210557A1, “USE OF RFRP, ALONE OR IN COMBINATION WITH NEUROKININ-B, AS A THERAPEUTIC AGENT” (priority 2007, published 2010).
# No end group written: not given here.
# What was measured:
# HCMV strain AD169 = assay: HCMV plaque formation assay in MRC-5 cells; conditions: for inhibition of HCMV plaque formation as compared to the virus control: 10 micrograms per ml, 7-10 days
# [1] = tested on: hepatitis B virus (HBV) ayw strain; assay: HBV assay in HepG2-2.2.15 cells (secreted HBV DNA by TaqMan PCR); assay type: cell-based; conditions: 10 micrograms per ml; six days; HBV DNA in supernatant
# From the text: HepG2-2.2.15 is a stable cell line containing the hepatitis B virus (HBV) ayw strain genome (ATCC Cat. No. CRL-11997). Antiviral compounds blocking any late step of viral replication such as transcription, translation, pregenome encapsidation, reverse transcription, particle assembly and release can be identified and characterized using this cell line. In this assay, an active compound will reduce the production of secreted HBV from cells, measured by utilizing real time quantitative PCR (TaqMan) assay to directly and accurately measure HBV DNA copies.
# HepG2-2.2.15 cells were plated in 96-well microtiter plates. After 16-24 hours the confluent monolayer of HepG2-2.2.15 cells was washed and the medium was replaced with complete medium containing test peptides—10 micrograms per ml—in duplicate. […] Six days following the initial administration of the peptides, the cell culture supernatants was collected, treated with pronase and DNAse and then used in a real-time quantitative TaqMan PCR assay. The PCR-amplified HBV DNA was detected in real-time by monitoring increases in fluorescence signals that result from the exonucleolytic degradation of a quenched fluorescence probe molecule that hybridizes to the amplified HBV DNA. […] Antiviral activity was calculated from the reduction in HBV DNA levels (% virus control). […]
# [2] = tested on: spleen cells of Ovalbumin-immunized Balb/c mice; assay: Th1/Th2 cytokine profiling assay; assay type: cell-based, mouse; conditions: 10 micrograms per ml; Ovalbumin restimulation 10 micrograms/ml; 72 hours
# Protocol: The Balb/c mice (originated in 1923, it is a popular strain and is used in many different research disciplines. […] On day 50, spleens of the mice were harvested (3 weeks after last boost with Ovalbumin). […] Thereafter, additional Ovalbumin was added to the cells at 10 micrograms/ml for in vitro restimulation of the cells. 72 hours later, cell supernatants were harvested and assayed using the Becton Dickinson Mouse […] Cytokine CBA Kit. This kit can be used to measure Interleukin-2 (IL-2), Interleukin-4 (IL-4), Interleukin-5 (IL-5), Interferon-γ (IFN-γ), and Tumor Necrosis Factor-α (TNF-α) protein levels in a single sample. The kit performance has been optimized for analysis of physiologically relevant concentrations (pg/ml levels) of specific cytokine proteins in tissue culture supernatants and serum samples.
# [3] = tested on: LPS-induced TNF-alpha production in human macrophages; assay: TNF alpha production assay (ELISA); assay type: cell-based; conditions: 10 micrograms per ml; LPS 200 ng/ml; overnight
# Protocol: Human Peripheral Blood Mononuclear Cells (PBMC) were obtained from normal human donors. The macrophages were prepared by adherence of PBMC to the plastic wells of the plates. […] Not stimulated macrophages served as negative background control. After overnight incubation, supernatants from the control and LPS-stimulated cultures were harvested and assayed for TNF alpha production employing a TNF alpha specific ELISA.
compound,measurement,setting,value
"Nc1nc(O)c2ncn(COC(CO)CO)c2n1 [Ganciclovir, reference compound]",antiviral activity of positive control compound (HCMV),HCMV strain AD169; positive control,expected levels of antiviral activity
Asp-Met-His-Asp-Phe-Phe-Val-Gly-Leu-Met-NH2 (DMHDFFVGLM-NH2) [Peptide 2],inhibition of HBV replication as compared to the virus control infection,[1],78.5%
same,IFNγ spleen cells; TH1 response (% of control),[2],126.8 % of control
same,IL-2 spleen cells (% of control),[2],198.0 % of control
same,IL-4 spleen cells; TH2 response (% of control),[2],103.5 % of control
same,IL-5 spleen cells; TH2 response (% of control),[2],99.2 % of control
same,TNF-a spleen cells; TH1 response (% of control),[2],151.0 % of control
same,inhibition of HCMV plaque formation as compared to the virus control,HCMV strain AD169,did not inhibit
same,induction of the LPS-induced TNF-alpha production in human macrophages,[3],15.9%
Met-Pro-His-Ser-Phe-Ala-Asn-Leu-Pro-Leu-Arg-Phe-NH2 (MPHSFANLPLRF-NH2) [Peptide 1],inhibition of HBV replication as compared to the virus control infection,[1],77.8%
same,IFNγ spleen cells; TH1 response (% of control),[2],57.5 % of control
same,IL-2 spleen cells (% of control),[2],239.7 % of control
same,IL-4 spleen cells; TH2 response (% of control),[2],168.7 % of control
same,IL-5 spleen cells; TH2 response (% of control),[2],99.2 % of control
same,TNF-a spleen cells; TH1 response (% of control),[2],106.3 % of control
same,inhibition of HCMV plaque formation as compared to the virus control,HCMV strain AD169,did not inhibit
same,induction of the LPS-induced TNF-alpha production in human macrophages,[3],21.7%
